The target of one data set is CDK9/cyclin T (Homo sapiens, UniProt P50750). Description: radiometric protein kinase assay.
Another data set concerns the target CK1δ/ε. Put plainly: radiometric protein kinase assay. In kind it is biochemical, porcine. The note with it: 15 μmol/L ATP; read-out: IC50 CK1.
The target in a further data set is T1, CDK5/p25 (Homo sapiens, UniProt Q00535).
T1 construct: made in house
Description: radiometric protein kinase assay. In kind it is biochemical. The note with it: 15 μmol/L ATP.

The next data set concerns the target DYRK1B (Homo sapiens, UniProt Q9Y463). Description: radiometric protein kinase assay. The note with it: 15 μmol/L ATP; read-out: IC50 DYRK 1B. In kind it is biochemical.
Data set [1] deals with CLK1 (Mus musculus, UniProt P22518). Put plainly: radiometric protein kinase assay.
For the next data set, the target named is CLK3 (Mus musculus, UniProt O35492). Description: radiometric protein kinase assay.
For the next data set, the target named is CDK1/cyclin B. Put plainly: radiometric protein kinase assay. The note with it: 15 μmol/L ATP. In kind it is biochemical, starfish.
The target in another data set is CLK2 (Mus musculus, UniProt O35491). Put plainly: radiometric protein kinase assay.
The next data set addresses GSK-3. Put plainly: radiometric protein kinase assay. The note with it: 15 μmol/L ATP; read-out: IC50 GSK3. In kind it is biochemical, porcine.
Another data set addresses CLK4 (Mus musculus, UniProt O35493). Description: radiometric protein kinase assay.
The target of data set [2] is DYRK1A (Homo sapiens, UniProt Q13627). Put plainly: radiometric protein kinase assay. In kind it is biochemical. The note with it: 15 μmol/L ATP; read-out: IC50 DYRK 1A.
The next data set deals with T2, CDK2/cyclin A (Homo sapiens, UniProt P24941).
T2 construct: made in house
Description: radiometric protein kinase assay. In kind it is biochemical. The note with it: 15 μmol/L ATP; read-out: IC50 CDK2/cyclinA.

A further data set deals with T3, DYRK3 (Homo sapiens, UniProt O43781).
T3 sequence (O43781 1-588): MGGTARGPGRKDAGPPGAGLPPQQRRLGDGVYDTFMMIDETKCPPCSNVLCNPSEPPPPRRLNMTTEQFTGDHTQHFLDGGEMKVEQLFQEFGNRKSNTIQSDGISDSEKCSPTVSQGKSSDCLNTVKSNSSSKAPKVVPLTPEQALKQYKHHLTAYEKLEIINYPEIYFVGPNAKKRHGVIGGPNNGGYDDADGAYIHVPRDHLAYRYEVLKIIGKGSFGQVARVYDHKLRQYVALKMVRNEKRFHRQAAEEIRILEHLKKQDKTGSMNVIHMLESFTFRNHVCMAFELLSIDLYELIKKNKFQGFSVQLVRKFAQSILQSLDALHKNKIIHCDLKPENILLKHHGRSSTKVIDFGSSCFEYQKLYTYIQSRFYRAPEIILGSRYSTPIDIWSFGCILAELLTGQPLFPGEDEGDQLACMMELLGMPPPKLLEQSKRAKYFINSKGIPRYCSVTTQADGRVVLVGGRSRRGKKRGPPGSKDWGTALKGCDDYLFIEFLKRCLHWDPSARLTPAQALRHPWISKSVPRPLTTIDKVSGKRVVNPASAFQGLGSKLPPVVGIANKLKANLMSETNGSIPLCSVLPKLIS
Put plainly: radiometric protein kinase assay. In kind it is biochemical. The note with it: 15 μmol/L ATP; read-out: IC50 DYRK 3.

In the next data set the target is T4, DYRK2 (Homo sapiens, UniProt Q92630).
T4 sequence (Q92630 1-601): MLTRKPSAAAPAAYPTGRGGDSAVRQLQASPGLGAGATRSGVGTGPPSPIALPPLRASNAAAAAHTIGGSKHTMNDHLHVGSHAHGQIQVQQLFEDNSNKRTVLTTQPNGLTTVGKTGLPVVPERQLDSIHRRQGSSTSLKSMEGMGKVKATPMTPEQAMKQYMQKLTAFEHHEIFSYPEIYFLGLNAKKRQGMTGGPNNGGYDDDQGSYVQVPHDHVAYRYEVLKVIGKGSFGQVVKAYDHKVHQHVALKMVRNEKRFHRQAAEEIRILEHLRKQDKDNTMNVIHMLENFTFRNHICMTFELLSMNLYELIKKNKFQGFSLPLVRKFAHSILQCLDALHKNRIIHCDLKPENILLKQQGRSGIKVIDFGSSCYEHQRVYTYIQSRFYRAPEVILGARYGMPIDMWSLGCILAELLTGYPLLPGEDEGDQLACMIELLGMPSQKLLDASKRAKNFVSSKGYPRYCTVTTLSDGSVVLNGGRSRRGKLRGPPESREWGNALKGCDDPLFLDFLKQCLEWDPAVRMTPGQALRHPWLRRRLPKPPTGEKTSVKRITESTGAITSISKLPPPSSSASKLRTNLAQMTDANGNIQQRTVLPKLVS
Put plainly: radiometric protein kinase assay. The note with it: 15 μmol/L ATP; read-out: IC50 DYRK 2. In kind it is biochemical.

Data set [3] relates to DYRK1A. The note with it: cited from earlier work.
Data set [4] has as its system CLK1. The note with it: cited from earlier work.
A further data set relates to HCT116. The note with it: colorectal cancer cell line; cited from earlier work.
Data set [5] has as its system DYRK1A. More on the design: method as in PMID 28561591. The note with it: cited from earlier work.
Data set [6] relates to CLK1. More on the design: method as in PMID 28561591. The note with it: cited from earlier work.
The subject of data set [7] is DYRK1A. Further details: method as in PMID 21450467. The note with it: cited from earlier work.
The subject of data set [8] is CLK1. More on the design: method as in PMID 21450467. The note with it: cited from earlier work.
In data set [9] the test system is DYRK1A. Further details: method as in PMID 28555643. The note with it: 1 μM; cited from earlier work.
Data set [10] deals with CLK1. Further details: method as in PMID 28555643. The note with it: 1 μM; cited from earlier work.

Read-outs that look alike come from different tables or passages of the source.

What is called melting point is the temperature, or range, at which the solid turns liquid. As usually defined, the GI50 is the concentration giving 50% growth inhibition.

CLK3, sequence (O35492 whole entry): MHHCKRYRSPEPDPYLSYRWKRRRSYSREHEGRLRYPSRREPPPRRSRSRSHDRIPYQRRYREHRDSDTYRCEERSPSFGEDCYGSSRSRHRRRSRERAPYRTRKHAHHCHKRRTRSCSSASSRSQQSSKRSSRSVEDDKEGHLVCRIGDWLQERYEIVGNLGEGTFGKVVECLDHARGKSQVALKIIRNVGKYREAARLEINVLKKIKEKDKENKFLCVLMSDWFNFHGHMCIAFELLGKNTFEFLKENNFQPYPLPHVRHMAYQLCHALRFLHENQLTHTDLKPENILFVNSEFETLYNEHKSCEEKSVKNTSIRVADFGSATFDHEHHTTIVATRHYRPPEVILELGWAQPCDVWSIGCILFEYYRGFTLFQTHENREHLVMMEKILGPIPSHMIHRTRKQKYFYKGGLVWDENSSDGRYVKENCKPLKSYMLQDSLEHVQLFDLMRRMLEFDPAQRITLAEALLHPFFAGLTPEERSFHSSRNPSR
CLK2, sequence (O35491 whole entry): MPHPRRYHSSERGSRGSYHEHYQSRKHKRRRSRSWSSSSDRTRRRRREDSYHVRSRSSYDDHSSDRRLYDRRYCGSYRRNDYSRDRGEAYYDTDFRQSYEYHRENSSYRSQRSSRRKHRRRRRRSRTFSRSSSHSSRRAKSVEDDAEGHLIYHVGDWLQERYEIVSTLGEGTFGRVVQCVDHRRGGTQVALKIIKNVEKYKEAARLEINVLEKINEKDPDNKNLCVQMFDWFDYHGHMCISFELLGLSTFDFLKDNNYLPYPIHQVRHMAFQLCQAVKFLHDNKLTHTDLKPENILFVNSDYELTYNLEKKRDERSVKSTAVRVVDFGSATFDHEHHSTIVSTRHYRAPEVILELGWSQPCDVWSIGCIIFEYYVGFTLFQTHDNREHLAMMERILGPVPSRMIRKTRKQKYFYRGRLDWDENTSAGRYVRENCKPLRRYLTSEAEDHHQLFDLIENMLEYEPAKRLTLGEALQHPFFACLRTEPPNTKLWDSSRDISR
CLK4, sequence (O35493 whole entry): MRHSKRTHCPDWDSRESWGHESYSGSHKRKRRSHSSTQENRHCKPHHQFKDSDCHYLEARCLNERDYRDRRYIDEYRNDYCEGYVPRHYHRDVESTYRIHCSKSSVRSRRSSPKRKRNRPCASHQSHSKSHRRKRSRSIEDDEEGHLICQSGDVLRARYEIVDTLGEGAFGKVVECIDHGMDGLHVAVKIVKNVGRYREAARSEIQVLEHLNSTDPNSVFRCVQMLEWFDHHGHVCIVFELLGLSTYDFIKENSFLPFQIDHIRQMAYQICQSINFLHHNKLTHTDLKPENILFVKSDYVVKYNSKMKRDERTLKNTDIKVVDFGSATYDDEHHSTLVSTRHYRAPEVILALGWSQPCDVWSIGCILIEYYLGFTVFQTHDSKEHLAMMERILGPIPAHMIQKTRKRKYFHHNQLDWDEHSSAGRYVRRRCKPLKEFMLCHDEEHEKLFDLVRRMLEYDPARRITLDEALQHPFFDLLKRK
DYRK1B, sequence (Q9Y463 whole entry): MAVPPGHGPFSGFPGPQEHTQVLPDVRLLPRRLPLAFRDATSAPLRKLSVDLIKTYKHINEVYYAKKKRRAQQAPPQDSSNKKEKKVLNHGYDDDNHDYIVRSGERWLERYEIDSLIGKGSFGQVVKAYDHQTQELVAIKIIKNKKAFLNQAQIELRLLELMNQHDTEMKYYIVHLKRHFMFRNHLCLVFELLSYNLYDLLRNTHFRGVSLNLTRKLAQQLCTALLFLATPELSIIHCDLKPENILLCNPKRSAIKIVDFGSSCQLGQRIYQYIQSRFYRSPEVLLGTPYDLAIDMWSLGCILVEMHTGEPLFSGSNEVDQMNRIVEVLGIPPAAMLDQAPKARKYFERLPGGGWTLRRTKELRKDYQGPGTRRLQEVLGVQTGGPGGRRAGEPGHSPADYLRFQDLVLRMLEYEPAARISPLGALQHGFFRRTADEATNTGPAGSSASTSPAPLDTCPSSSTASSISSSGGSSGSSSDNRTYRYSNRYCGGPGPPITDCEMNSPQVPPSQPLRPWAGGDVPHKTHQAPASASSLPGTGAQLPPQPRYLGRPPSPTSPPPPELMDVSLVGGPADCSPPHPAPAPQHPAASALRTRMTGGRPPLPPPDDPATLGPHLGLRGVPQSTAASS
CDK9/cyclin T, sequence (P50750 whole entry): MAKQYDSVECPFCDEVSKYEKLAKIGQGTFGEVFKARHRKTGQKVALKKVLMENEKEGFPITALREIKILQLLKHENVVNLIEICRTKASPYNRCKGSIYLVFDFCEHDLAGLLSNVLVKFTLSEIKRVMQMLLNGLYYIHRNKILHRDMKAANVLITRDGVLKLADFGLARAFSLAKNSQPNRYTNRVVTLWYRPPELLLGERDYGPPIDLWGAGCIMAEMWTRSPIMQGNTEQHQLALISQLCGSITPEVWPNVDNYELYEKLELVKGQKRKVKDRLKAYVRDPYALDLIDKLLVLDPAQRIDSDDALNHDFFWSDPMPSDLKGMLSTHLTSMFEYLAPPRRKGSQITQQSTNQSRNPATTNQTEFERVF
CDK9/cyclin T, sequence (O60563 whole entry partner): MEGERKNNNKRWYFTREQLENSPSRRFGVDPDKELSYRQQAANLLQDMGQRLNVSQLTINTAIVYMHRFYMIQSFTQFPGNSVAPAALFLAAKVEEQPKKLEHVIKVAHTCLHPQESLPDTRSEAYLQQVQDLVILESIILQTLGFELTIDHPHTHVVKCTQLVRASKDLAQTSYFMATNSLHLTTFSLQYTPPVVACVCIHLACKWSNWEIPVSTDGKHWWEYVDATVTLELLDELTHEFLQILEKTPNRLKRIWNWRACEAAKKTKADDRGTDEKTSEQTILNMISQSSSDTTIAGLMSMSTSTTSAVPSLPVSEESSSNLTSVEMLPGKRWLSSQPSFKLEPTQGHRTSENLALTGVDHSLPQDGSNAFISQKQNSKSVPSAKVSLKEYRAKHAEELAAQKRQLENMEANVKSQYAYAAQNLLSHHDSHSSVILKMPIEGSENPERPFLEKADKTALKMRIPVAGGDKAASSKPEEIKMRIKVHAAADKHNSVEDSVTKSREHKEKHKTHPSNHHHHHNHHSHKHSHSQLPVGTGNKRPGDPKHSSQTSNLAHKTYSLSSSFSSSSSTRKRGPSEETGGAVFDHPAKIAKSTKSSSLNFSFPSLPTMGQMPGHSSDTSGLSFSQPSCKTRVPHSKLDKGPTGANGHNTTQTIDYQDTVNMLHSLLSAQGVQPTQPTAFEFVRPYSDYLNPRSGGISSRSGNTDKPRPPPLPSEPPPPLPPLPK
CLK1 (Mus musculus, UniProt P22518), sequence (P22518 whole entry): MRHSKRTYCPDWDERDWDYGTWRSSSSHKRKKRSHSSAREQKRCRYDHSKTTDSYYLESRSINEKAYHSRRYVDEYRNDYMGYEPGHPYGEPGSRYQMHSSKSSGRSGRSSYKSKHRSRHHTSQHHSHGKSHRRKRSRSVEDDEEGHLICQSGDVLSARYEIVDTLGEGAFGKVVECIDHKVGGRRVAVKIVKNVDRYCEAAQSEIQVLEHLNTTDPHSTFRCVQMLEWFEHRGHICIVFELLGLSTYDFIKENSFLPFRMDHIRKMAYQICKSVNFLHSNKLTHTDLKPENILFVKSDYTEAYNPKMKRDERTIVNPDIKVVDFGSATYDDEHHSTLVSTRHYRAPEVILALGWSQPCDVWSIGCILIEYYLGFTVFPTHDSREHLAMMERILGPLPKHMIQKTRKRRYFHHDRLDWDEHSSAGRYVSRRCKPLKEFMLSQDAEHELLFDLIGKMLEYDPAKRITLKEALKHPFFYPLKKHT
T1 sequence (Q00535 whole entry): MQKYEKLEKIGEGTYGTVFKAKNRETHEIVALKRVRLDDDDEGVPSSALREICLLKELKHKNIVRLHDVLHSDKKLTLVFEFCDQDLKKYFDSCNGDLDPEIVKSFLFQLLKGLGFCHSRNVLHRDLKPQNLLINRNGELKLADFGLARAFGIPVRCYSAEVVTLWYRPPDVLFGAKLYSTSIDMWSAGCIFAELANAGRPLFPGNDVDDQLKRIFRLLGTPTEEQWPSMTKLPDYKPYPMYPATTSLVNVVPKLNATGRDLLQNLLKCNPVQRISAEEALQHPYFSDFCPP
T1 sequence (Q15078 99-307 partner limits assumed): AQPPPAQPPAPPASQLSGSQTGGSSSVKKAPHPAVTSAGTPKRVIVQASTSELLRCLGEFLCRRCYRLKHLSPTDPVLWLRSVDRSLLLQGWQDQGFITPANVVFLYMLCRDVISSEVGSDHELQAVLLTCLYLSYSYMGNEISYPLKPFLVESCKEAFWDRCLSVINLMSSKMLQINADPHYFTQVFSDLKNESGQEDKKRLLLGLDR
Description for CLK2: (§1) Buffers. Buffer A: 10 mM MgCl2, 1 mM EGTA, 1 mM DTT, 25 mM Tris-HCl pH 7.5, 50 μg heparin/mL. Buffer C: 60 mM β-glycerophosphate, 15 mM p-nitrophenylphosphate, 25 mM MOPS (pH 7.2), 15 mM EGTA, 15 mM MgCl2, 1 mM DTT, 1 mM sodium vanadate, 1 mM phenylphosphate.
(§2) Kinase activities were assayed in buffer A or C at 30°C at a final ATP concentration of 15 μmol/L. Blank values were subtracted and activities were expressed in percent of the maximal activity, i.e. in the absence of inhibitors. Controls were performed with appropriate dilutions of DMSO.
(§3) Their kinase activity was assayed in buffer A, with 1 mg histone H1/mL, in the presence of 15 μmol/L [γ-33P] ATP (3,000 Ci/mmol; 10 mCi/mL) in a final volume of 30 μL. After 30 min incubation at 30°C, the reaction was stopped by harvesting onto P81 phosphocellulose supernatant (Whatman) using a FilterMate harvester (Packard) and washing in 1% phosphoric acid. Scintillation fluid was added and the radioactivity measured in a Packard counter.
(§4) All data points for construction of dose response curves were recorded in triplicate.
Description for CLK3: as §1, §2, §3, §4

The molecule `COc1cccc(-c2c[nH]c3c4c(ccc23)CNC4=O)c1` [8f, 3-(3-Methoxyphenyl)-6,7-dihydropyrrolo[3,4-g]indol-8(1H)-one] returned a melting point of 207 to 208 °C. The molecule also gave an IC50 at CDK9/cyclin T of over 10 µM. Also, at CK1δ/ε, the IC50 was over 10 µM. The IC50 against CDK5/p25 is over 10 µM. Besides, the IC50 on DYRK1B was determined as 1.9 µM. The IC50 at CLK1 [1] came out at 0.11 µM. The molecule also showed an IC50 on CLK3 of 2.8 µM. Further, the IC50 against CDK1/cyclin B is over 10 µM. Further, on CLK2, the IC50 was 0.32 µM. In addition, at GSK-3, the IC50 was over 10 µM. This molecule also yielded an IC50 against CLK4 of 0.11 µM. The IC50 at DYRK1A [2] stood at 3.8 µM. On CDK2/cyclin A, the IC50 was over 10 µM. In addition, the IC50 at DYRK3 turned out to be 5.4 µM. Moreover, on DYRK2, the IC50 was 2.1 µM.

With `CN1CCN(C(=O)C(C)(C)c2ccc(C(=O)Nc3cn4cc(-c5ccncc5)ccc4n3)cc2)CC1` [T3], the results for the IC50 in the data set on DYRK1A [3] and in the data set on CLK1 [4] were 0.26 µM and 0.00067 µM, respectively. In the data set on HCT116, the GI50 is 0.13 µM.

In the case of `O=C1NCc2c(-c3ccccc3F)cc3c(-c4ccccc4)c[nH]c3c21` [17b, 5-(2-Fluorophenyl)-3-phenyl-6,7-dihydropyrrolo[3,4-g]indol-8(1H)-one], the melting point was 136 to 139 °C. For the same molecule, the IC50 at CDK9/cyclin T is over 10 µM. At CK1δ/ε, the IC50 was over 10 µM. Also, the IC50 at CDK5/p25 is over 10 µM. The IC50 on DYRK1B is over 10 µM. The molecule further gave an IC50 against CLK1 [1] of 5.8 µM. On CLK3, this molecule gave an IC50 of over 10 µM. In addition, on CDK1/cyclin B, the IC50 was over 10 µM. On CLK2, this molecule gave an IC50 of 4.1 µM. The IC50 at GSK-3 is over 10 µM. Further, the IC50 against CLK4 was determined as 0.91 µM. Also, the IC50 at DYRK1A [2] was over 10 µM. Further, the IC50 at CDK2/cyclin A was over 10 µM. At DYRK3, the IC50 was over 10 µM. Besides, the IC50 on DYRK2 was over 10 µM.

Regarding `O=C1NCc2ccc3c(-c4cccc([N+](=O)[O-])c4)c[nH]c3c21` [8j, 3-(3-Nitrophenyl)-6,7-dihydropyrrolo[3,4-g]indol-8(1H)-one], the melting point was 237 to 238 °C (dec.). This molecule also returned an IC50 against CDK9/cyclin T of over 10 µM. Further, at CK1δ/ε, the IC50 was over 10 µM. For the same molecule, on CDK5/p25, the IC50 was over 10 µM. In addition, the IC50 at DYRK1B worked out at 1.5 µM. The molecule also came in with an IC50 on CLK1 [1] of 0.038 µM. The molecule also gave an IC50 against CLK3 of 8.5 µM. The IC50 at CDK1/cyclin B is over 10 µM. Besides, at CLK2, the IC50 stood at 0.37 µM. The IC50 at GSK-3 was over 10 µM. Besides, on CLK4, the IC50 turned out to be 0.061 µM. For the same molecule, on DYRK1A [2], the IC50 is over 10 µM. The IC50 at CDK2/cyclin A was over 10 µM. The IC50 at DYRK3 is 1.9 µM. Moreover, at DYRK2, the IC50 came to 4.9 µM.

Regarding `COc1ccc2sc(C(=O)N(C)Cc3cccc(F)c3)cc2c1` [compound 4], the IC50 was 0.34 µM in the data set with DYRK1A [5] and 0.007 µM with CLK1 [6].

The molecule `Cn1cc(-c2ccccc2)c2ccc3c(c21)C(=O)NC3` [15a, 1-Methyl-3-phenyl-6,7-dihydropyrrolo[3,4-g]indol-8(1H)-one] yielded a melting point of 255 to 256 °C. The molecule also gave an IC50 on CDK9/cyclin T of over 10 µM. Besides, the IC50 at CK1δ/ε is over 10 µM. The molecule also registered an IC50 against CDK5/p25 of over 10 µM. For the same molecule, the IC50 at DYRK1B was over 10 µM. Besides, on CLK1 [1], the IC50 worked out at 0.19 µM. The molecule further had an IC50 against CLK3 of over 10 µM. This molecule also showed an IC50 against CDK1/cyclin B of over 10 µM. Further, the IC50 on CLK2 stood at 1.1 µM. Besides, the IC50 on GSK-3 is over 10 µM. This molecule also gave an IC50 against CLK4 of 0.16 µM. In addition, at DYRK1A [2], the IC50 is over 10 µM. In addition, the IC50 at CDK2/cyclin A is over 10 µM. On DYRK3, the IC50 is over 10 µM. Moreover, the IC50 at DYRK2 was over 10 µM.

In the case of `Cc1nc(CNc2ncnc3ccc(-c4ccc5c(c4)OCO5)cc23)cs1` [NCGC00185963], the IC50 in the data set with DYRK1A [7] is 0.206 µM; in the data set with CLK1 [8] it was 0.096 µM.

For the molecule `c1cc(-c2ccc3[nH]ncc3c2)ccn1` [TG693], the “inhibition of DYRK1A activity” value in the data set with DYRK1A [9] is listed as 84%. In addition, in the data set on CLK1 [10], the “inhibition of CLK1 activity” value was 93%.

Source of the values: PMC5933782, “Molecular structures of cdc2-like kinases in complex with a new inhibitor chemotype” (PLoS ONE, 2018).
